According to paper PMC3665789 (PLoS ONE, 2013):
Like-named read-outs stand apart in the source and are kept apart here.

What was measured:
[1] = Cytotoxicity assay (flow cytometry); type: cell-based; conditions: 3 days, read-out: 50% cytotoxic concentration (CC50)
Method: The vaginal epithelial cell lines HEC-1A and VK2 (500 µl; at a density of 1×10^6 cells/ml) were seeded in a 24-well plate and incubated for 3 days with various concentrations of LabyA1 (500 µl). Cell cytotoxicity was determined microscopically and by flow cytometry (FACSCalibur, BD Biosciences, Erembodegem, Belgium).

HIV-1 BaL (R5) = conditions: read-out: EC50 (µM ± SEM), PBMCs, p24 Ag ELISA
[2] = test system: HIV-1 NL4.3^AMD3100res. (X4); conditions: read-out: EC50 (µM ± SEM); MT-4 cells; NL4.3 resistant to AMD3100; MTS/PES
CD4 = molecular target: T1, CD4 (Homo sapiens, UniProt P01730); assay: Anti-CD4 mAb binding on SupT1 cells (flow cytometry); conditions: SupT1 T cells; 9.6 µM or 1.9 µM
T1 construct: endogenous in cells; host or cells: SupT1 T cells (ATCC)
Method: To determine the interaction of LabyA1 with CD4, SupT1 cells (100 µl; 3×10^6 cells/ml) were incubated for 20 min at 4°C with 9.6 µM, 1.9 µM or 0 µM LabyA1. After extensive washing with PBS/FCS2% (PBS supplemented with 2% FCS), anti-CD4-PE conjugated mAbs RPA-T4 (eBioscience, Vienna, Austria), MT441 (Ancell, Enzo Life sciences) and OKT-4 (eBioscience) were added for 30 min at 4°C. For aspecific background staining, cells were incubated with SimulTest™ Control (IgGγ1-FITC/IgGγ2a-PE) (BD Biosciences). After washing, and fixation with 1% formaldehyde solution, samples were analyzed using the FACSCalibur and CellQuest software (BD Biosciences). The same protocol was applied for anti-CXCR4 evaluation using the fluorochrome conjugated mAbs 12G5-PE and 2B11-FITC (both BD Biosciences).

[3] = test system: HIV-1 NL4.3^2G12res. (X4); conditions: read-out: EC50 (µM ± SEM); MT-4 cells; NL4.3 resistant to mAb 2G12; MTS/PES
HIV-1 NL4.3 (X4) = conditions: read-out: EC50 (µM ± SEM), MT-4 cells, MTS/PES method
HSV-2 = assay: Cellular binding experiment: pre-treatment of cells, compound removed, HSV-2 infection; type: cell-based; conditions: data not shown
HIV-1 NL4.3^T20res. (X4) = conditions: read-out: EC50 (µM ± SEM); MT-4 cells; NL4.3 resistant to enfuvirtide (T20); MTS/PES
[4] = Cytotoxicity assay (MTS/PES); type: cell-based
Method: Cytotoxicity in PBMCs (3 days), MT-4 (5 days), HUT-78 (1 day), C8166-(5 days), HEL (3 days) and Daudi cells (3 days) was measured using the MTS/PES method. The duration of the assays is given between brackets.

HSV-2 wild-type = conditions: read-out: Median EC50; median over HSV-2 wild-type strains; HEL cells
[5] = test system: HIV-induced cell-cell syncytia formation (HUT-78/IIIB and SupT1 cells); assay: Giant cell cocultivation assay (HUT-78/IIIB + SupT1); type: cell-based, HIV-1
Method: The cocultivation experiments were performed as described previously. In brief, LabyA1 was diluted in cell culture medium and 100 µl was added in 96-well plate (BD, Falcon) along with the SupT1 T cells (1×10^5 cells/50 µl). The same amount of persistently HIV-infected HUT-78/IIIB cells were seeded and incubated at 37°C for 24 h. The next day, giant cell formation was scored microscopically and in addition the depletion of the CD4^+ SupT1 cells was measured by flow cytometry.
The depletion of the target CD4^+ SupT1 T cells in the cocultivation assays was measured using PE-conjugated […] (BD Biosciences). The cells were incubated for 30 minutes at room temperature with anti-CD28-PE. After several washing steps, the cells were fixed with a 1% paraformaldehyde solution and analyzed by flow cytometry.

[6] = test system: HIV-1 NL4.3 binding to CD4+ SupT1 cells; type: cell-based; conditions: LabyA1 9.6 µM, sCD4 10 µg/ml, AMD3100 12 µM; no compound MFI 9.8, background 3.9
R5 HIV-1 gp120 ADA = assay: Surface plasmon resonance; type: binding; conditions: SPR, immobilized gp120 ADA, 25°C
Method: Recombinant gp120 proteins from X4 HIV-1 IIIB strain (ImmunoDiagnostics Inc., Woburn, MA) and from R5 HIV-1 strains ADA and YU2 (ImmunoDiagnostics Inc.) were covalently immobilized on a CM5 sensor chip in 10 mM sodium acetate, pH 4.0, using standard amine coupling chemistry. The chip densities were 8200 resonance units (RUs), 10760 RUs and 9626 RUs, respectively. A reference flow cell was used as a control for non-specific binding and refractive index changes. All interaction studies were performed at 25°C on a Biacore T200 instrument (GE Healthcare, Uppsala, Sweden). The compounds LabyA1 and nisin were serially diluted in HBS-P (10 mM HEPES, 150 mM NaCl and 0,05% surfactant P20; pH 7.4) supplemented with 5% dimethyl sulfoxide (DMSO, Merck), and 10 mM CaCl2 covering a concentration range between 7.8 and 31.3 µM, by using two-fold dilution steps. Samples (in duplicate) were injected for 2 minutes at a flow rate of 45 µl/min and the dissociation was followed for 4 minutes. Several buffer blanks were used for double referencing. The CM5 sensor chip surface was regenerated with a single injection of 50 mM NaOH. A DMSO concentration series was included to eliminate the contribution of DMSO to the measured response. […] The experimental data were fit using the 1∶1 binding model Biacore T200 Evaluation software 1.0 to determine the binding kinetics.

[7] = test system: HIV-1 ID12 (clinical isolate; R5); conditions: PBMCs; ID12, group M subtype A/E; p24 Ag ELISA

C/C=C1\NC(=O)[C@H](Cc2ccccc2)NC(=O)[C@@H]2CCCN2C(=O)[C@H](C(C)C)NC(=O)[C@H](Cc2c[nH]c3ccccc23)NC(=O)[C@]23CSC[C@H](NC1=O)C(=O)N[C@H](C(=O)O)CSSC[C@H](NC(=O)[C@@H]1CSC[C@]4(C[C@H](N)C(=O)N[C@@H](CC(N)=O)C(=O)N[C@@H](C)C(=O)N4)C(=O)N[C@@H](C(C)C)C(=O)N[C@@H](Cc4c[nH]c5ccccc45)C(=O)N[C@@H](CCC(=O)O)C(=O)N1)C(=O)N[C@@H](C2)C(=O)N[C@@H]([C@@H](C)O)C(=O)NCC(=O)N3 [LabyA1, labyrinthopeptin A1]
CC50 ([1]; HEC-1A (endometrium carcinoma)): 34 µM
CC50 ([1]; VK2 (vaginal epithelial)): > 48 µM
EC50 (HIV-1 BaL (R5)): 3.3 ± 0.4 µM
EC50 [2]: 2.4 ± 0.5 µM
effect on binding of anti-CD4 mAbs RPA-T4, MT441 and OKT4 (CD4): no effect
EC50 [3]: 2.2 ± 0.3 µM
EC50 (HIV-1 clinical isolates; read-out: EC50 range, range over 9 HIV-1 clinical isolates in PBMCs): 700 to 1900 nM
EC50 (HIV-1 clinical isolates; read-out: Median EC50, median over 9 HIV-1 clinical isolates in PBMCs): 1000 nM
EC50 (HIV-1 NL4.3 (X4)): 1.7 ± 0.4 µM
inhibition of HSV-2 replication after pre-treatment of cells for 1 h and removal of compound (HSV-2): lost its ability to inhibit HSV-2 replication
EC50 (HIV-1 NL4.3^T20res. (X4)): 2.3 ± 0.3 µM
CC50 ([4]; C8166 cells, 5 days): 23 µM
CC50 ([4]; Daudi cells, 3 days): > 48 µM
CC50 ([4]; HUT-78 cells, 1 day): > 31 µM
CC50 ([4]; MT-4 cells, 5 days): 33 µM
CC50 ([4]; PBMCs, 3 days): 45 µM
EC50 (HSV-2 wild-type): 410 nM
activity in cell-cell fusion assay ([5]; 0.96 µM, light microscopy): no activity was observed
giant cell formation ([5]; 4.8 µM, light microscopy): some giant cells were formed
giant cell formation ([5]; 24 µM, light microscopy): completely inhibited
EC50 ([5]; 24 h coculture, CD28 flow cytometry, read-out: EC50, survival of SupT1 T cells in coculture with HUT-78/IIIB cells): 2500 nM
virus binding, mean fluorescence intensity (MFI) of anti-gp120 (9205) mAb [6]: 9.2
Kd (R5 HIV-1 gp120 ADA): 12.3 ± 2.2 µM
EC50 [7]: 1200 ± 800 nM
